O=C(O)CCc1nc(-c2ccccc2)c(-c2ccccc2)o1
solubility (mole fraction)
Details	278.15 K	283.15 K	288.15 K	293.15 K	298.15 K	303.15 K	308.15 K	313.15 K	318.15 K	323.15 K
in DMAc	0.205	0.213	0.223	0.232	0.243	0.252	0.261	0.273	0.284	0.295
in DMF	0.136	0.146	0.154	0.164	0.174	0.186	0.197	0.207	0.219	0.232
in DMSO	–	–	–	0.214	0.226	0.24	0.256	0.272	0.287	0.303
in ethanol	0.00257	0.00315	0.00388	0.00476	0.00592	0.00716	0.00894	0.0112	0.014	0.0177
in ethyl acetate	0.00398	0.00472	0.00558	0.00661	0.00778	0.00925	0.011	0.0129	0.0151	0.0178
in methanol	0.0023	0.00282	0.00343	0.00426	0.00523	0.00657	0.00821	0.0103	0.013	0.0164
in methyl acetate	0.00533	0.00626	0.00735	0.00867	0.0102	0.012	0.0146	0.0167	0.0192	0.022
in n-butanol	0.00266	0.00328	0.00422	0.00533	0.00663	0.008	0.0105	0.0131	0.0164	0.0205
in n-butyl acetate	0.00293	0.00347	0.00416	0.00489	0.00593	0.00707	0.00842	0.01	0.012	0.0143
in n-pentanol	0.00266	0.00349	0.00458	0.00561	0.00701	0.00864	0.0108	0.0134	0.0168	0.021
in n-pentyl acetate	0.00274	0.00331	0.00387	0.0046	0.0055	0.00654	0.00782	0.00931	0.0111	0.0132
in n-propanol	0.00255	0.00326	0.00414	0.00519	0.00637	0.00794	0.01	0.0122	0.0161	0.0201
in n-propyl acetate	0.0032	0.00386	0.00463	0.00534	0.00656	0.00781	0.00935	0.0111	0.0132	0.0158
